Test results reported in patent US20030139397A1, “Arthropodicidal carboxanilides” (priority 2002, published 2003).

These molecules were tested on tobacco budworm (Heliothis virescens). Conditions: in vivo.
Protocol: See Index Table A for compound descriptions. The following abbreviations are used in the Index Table that follows: n is normal, i is iso, Pr […], and Ph is phenyl. The abbreviation “Ex.” stands for “Example” and is followed by a number indicating in which example the compound is prepared.
Test units, each consisting of a H.I.S. (high impact styrene) tray with 16 cells were prepared. Wet filter paper and approximately 8 cm^2 of lima bean leaf were placed into twelve of the cells. A 0.5-cm layer of wheat germ diet was placed into the four remaining cells. Fifteen to twenty third-instar larvae of fall armyworm (Spodoptera frugiperda) were placed into a 230-mL (8-ounce) plastic cup. Solutions of each of the test compounds in 75:25 acetone-distilled water solvent were sprayed into the tray and cup. Spraying was accomplished by passing the tray and cup on a conveyer belt directly beneath a flat fan hydraulic nozzle which discharged the spray at a rate of 0.138 kilograms of active ingredient per hectare (about 0.13 pounds per acre) at 207 kPa (30 p.s.i.). The insects were transferred from the 230-mL cup to the H.I.S. tray (one insect per cell). The trays were covered and held at 27° C. and 50% relative humidity for 48 hours, after which time readings were taken on the twelve cells with lima bean leaves. The four remaining cells were read at 6-8 days for delayed toxicity.
The test procedure of TEST A was repeated for determining efficacy against third-instar larvae of the tobacco budworm (Heliothis virescens) except that three 230-mL (8-ounce) plastic cups with wheat germ diet were used in place of the H.I.S. tray, with each cup pre-infected with five third-instar larvae.
For `CN1N=C(C(=O)Nc2ccc(C(F)(F)F)cc2)N=C2c3ccc(F)cc3CC21C` (stereo not drawn) [Compound 19], the mortality levels was no less than 80%. For `CCCC12Cc3cc(C(F)(F)F)ccc3C1=NC(C(=O)Nc1ccc(C(F)(F)F)cc1)=NN2C(C)=O` (stereo not drawn) [Compound 11], the mortality levels was no less than 80%. In the case of `CCCC12Cc3cc(Cl)ccc3C1=NC(C(=O)Nc1ccc(Br)cc1)=NN2` (stereo not drawn) [Compound 2], the mortality levels is reported as no less than 80%. `CN1N=C(C(=O)Nc2ccc(C(F)(F)F)cc2)N=C2c3ccc(C(F)(F)F)cc3CC21C` (stereo not drawn) [Compound 9] showed a mortality levels of no less than 80%. For `CN1N=C(C(=O)Nc2ccc(OC(F)(F)F)cc2)N=C2c3ccc(C(F)(F)F)cc3CC21C` (stereo not drawn) [Compound 10], the mortality levels was no less than 80%. Molecule `CC(C)C12Cc3cc(Cl)ccc3C1=NC(C(=O)Nc1ccc(OC(F)(F)F)cc1)=NN2` (stereo not drawn) [Compound 15] has a mortality levels of no less than 80%. Work on `CCCC12Cc3cc(Cl)ccc3C1=NC(C(=O)Nc1ccc(C(F)(F)F)cc1)=NN2C` (stereo not drawn) [Compound 5] yielded a mortality levels of no less than 80%. `O=C(Nc1ccc(OC(F)(F)F)cc1)C1=NNC2(c3ccc(F)cc3)Cc3cc(F)ccc3C2=N1` (stereo not drawn) [Compound 13] showed a mortality levels of no less than 80%. Work on `COC(=O)N1N=C(C(=O)Nc2ccc(OC(F)(F)F)cc2)N=C2c3ccc(F)cc3CC21c1ccc(F)cc1` (stereo not drawn) [Compound 16] yielded a mortality levels of no less than 80%. Molecule `CCCC12Cc3cc(C(F)(F)F)ccc3C1=NC(C(=O)Nc1ccc(OC(F)(F)F)cc1)=NN2C(C)=O` (stereo not drawn) [Compound 12] has a mortality levels of no less than 80%. With `CC12Cc3cc(F)ccc3C1=NC(C(=O)Nc1ccc(OC(F)(F)F)cc1)=NN2` (stereo not drawn) [Compound 14] the mortality levels was no less than 80%. `CCCC12Cc3cc(Cl)ccc3C1=NC(C(=O)Nc1ccc(OC(F)(F)F)cc1)=NN2C` (stereo not drawn) [Compound 6] showed a mortality levels of no less than 80%. With `CCCC12Cc3cc(C(F)(F)F)ccc3C1=NC(C(=O)Nc1ccc(C(F)(F)F)cc1)=NN2C` (stereo not drawn) [Compound 7] the mortality levels was no less than 80%. `CCCC12Cc3cc(C(F)(F)F)ccc3C1=NC(C(=O)Nc1ccc(OC(F)(F)F)cc1)=NN2C` (stereo not drawn) [Compound 8] showed a mortality levels of no less than 80%. `CN1N=C(C(=O)Nc2ccc(OC(F)(F)F)cc2)N=C2c3ccc(F)cc3CC21C` (stereo not drawn) [Compound 17] showed a mortality levels of no less than 80%. `O=C(Nc1ccc(SC(F)(F)F)cc1)C1=NNC2(c3ccc(F)cc3)Cc3cc(F)ccc3C2=N1` (stereo not drawn) [Compound 22] was tested, and the mortality levels was no less than 80%. Work on `CCCC12Cc3cc(Cl)ccc3C1=NC(C(=O)Nc1ccc(SC(F)(F)F)cc1)=NN2` (stereo not drawn) [Compound 20] yielded a mortality levels of no less than 80%. `CCCC12Cc3cc(C(F)(F)F)ccc3C1=NC(C(=O)Nc1ccc(SC(F)(F)F)cc1)=NN2` (stereo not drawn) [Compound 21] was tested, and the mortality levels was no less than 80%.
